How the values were obtained:
[1] = system: OCT receptor sites, NG-108 cells; format: binding, Rat glioma x mouse neuroblastoma
[2] = system: voltage-gated calcium channels, N1E115 mouse neuroblastoma cells; format: cell-based

## CSCC[C@@H]1NC(=O)[C@H](CC(C)C)NC(=O)[C@H](CCCNC(=N)N)NC(=O)[C@H](CO)NC(=O)[C@@H]2CSSC[C@@H]3NC(=O)[C@H](CO)NC(=O)CNC(=O)[C@H]([C@@H](C)O)NC(=O)[C@H](CSSC[C@H](N)C(=O)N[C@@H](CCCCN)C(=O)NCC(=O)N[C@@H](CCCCN)C(=O)NCC(=O)N[C@@H](C)C(=O)N[C@@H](CCCCN)C(=O)N2)NC(=O)[C@H](CSSC[C@@H](C(N)=O)NC(=O)[C@H](CCCCN)NC(=O)CNC(=O)[C@H](CO)NC(=O)[C@H](CCCNC(=N)N)NC3=O)NC(=O)[C@H](CC(=O)O)NC(=O)[C@H](Cc2ccc(O)cc2)NC1=O [MVIIA]
[1]
  concentration of specific binding sites: 45.6

## C[C@@H](O)[C@@H]1NC(=O)[C@H](Cc2ccc(O)cc2)NC(=O)[C@@H]2C[C@@H](O)CN2C(=O)[C@H](CC(N)=O)NC(=O)[C@@H]2CSSC[C@@H]3NC(=O)[C@H](CO)NC(=O)[C@H](CO)NC(=O)CNC(=O)[C@@H]4C[C@@H](O)CN4C(=O)[C@H](CO)NC(=O)[C@H](CCCCN)NC(=O)[C@@H](N)CSSC[C@H](NC(=O)[C@H](CSSC[C@@H](C(=O)N[C@@H](Cc4ccc(O)cc4)C(N)=O)NC(=O)[C@H](CCCNC(=N)N)NC(=O)[C@H](CCCCN)NC1=O)NC(=O)[C@H](CC(N)=O)NC(=O)[C@H](Cc1ccc(O)cc1)NC(=O)[C@H](CO)NC(=O)[C@H]([C@@H](C)O)NC(=O)[C@@H]1C[C@@H](O)CN1C(=O)[C@H](CO)NC3=O)C(=O)N[C@@H](CCCNC(=N)N)C(=O)N[C@@H](CO)C(=O)N2 [GVIA, HCysLysSer4HypGlySerSerCysSer4HypThrSerTyrAsnCysCysArgSerCysAsn4HypTyrLysArgCysTyr-NH2]
[2]
  ED50 (50% inhibition of calcium current): 12 nM
